{"source": "patent US10583102B2", "about": "“Targeting liver nuclear receptors as a treatment for wilson disease” (THE JOHNS HOPKINS UNIVERSITY, priority 2014, dated 2020)", "key": {"[1]": {"system": "LXR/RXR signaling pathway", "test": "Quantitative RT-PCR of liver mRNA, genes under control of LXR/RXR signaling pathway", "assay_type": "in vivo, mice", "conditions": "for SREBP1 mRNA / FASN mRNA expression: treated vs untreated", "method": "(§1) ATP7b knockout (ATP7b^−/−) and heterozygote (ATP7b^+/−) mice were generated as previously prescribed (Buiakova et al., 8(9) HUM. MOL. GENETICS 1665-71 (1999). T0901317 (Cayman Chemical, Ann Arbor, Mich.) powder was mixed with Teklad 2018 powdered chow (Harlan, Madison Wis.) and fed to animals aged 6-7 weeks old at a dose of 50 mg/kg/day, thrice weekly. After 8 weeks, animals were sacrificed. The animals were housed at the Johns Hopkins University School of Medicine (JHUSOM) Animal Care Facility and protocols designed according to National Institutes of Health (USA) guidelines. Normal pellet chow was fed to the mice on days they were not receiving the drug. Animals were weighed weekly. At the time of sacrifice, trunk blood and livers were harvested. The Institutional Animal Care and Use Committee (IACUC) of JHUSOM approved the above experimental protocols.\n(§2) Sections of mouse liver were immersed in RNAlater, homogenized, and frozen at −80° C. RNA was isolated with TRIzol via the manufacturer's instructions, then transcribed into cDNA using the SuperScript III first strand synthesis system (Invitrogen). RNA quantity was determined by an ND-1000 spectrophotometer (NanoDrop, Wilmington, Del.). Samples were run in triplicate and performed on a 7900 HT machine (Applied Biosystems) and analyzed with the SDS 2.4.1 software. GAPDH served as the control to which gene of interest expression was normalized.\n(§3) Quantitative RT-PCR for ABC1, HmGCoA1, CYP71a, FASN, LXRα (NR1H3), LXRβ (NR1H2), RXRα (NR2B2), SREBP1, FXR, TIMP1, COL1a, and GAPDHwas performed with sequence-specific primers and probes using TaqMan gene expression assays (Applied Biosystems, Foster City, Calif.)."}, "Atp7b−/− mice [2]": {"system": "Atp7b−/− mice", "test": "Serum lipid panel", "assay_type": "in vivo", "conditions": "drug treated Atp7b−/− mice vs untreated Atp7b−/−", "method": "as §1, with “protocols. Animals were fasted overnight before sacrifice. Whole blood was collected from the aorta and vena cava in amber Microtainer tubes (Becton Dickinson, Franklin Lakes, N.J.), and serum was separated after centrifugation at 5000 rpm for 10 minutes. Liver biochemistries and lipid panels were performed in the Molecular and Comparative Pathobiology Core Laboratory of JHUSOM.” for “protocols.”"}, "Atp7b−/− mice [3]": {"system": "Atp7b−/− mice", "test": "Hepatic copper measurement by atomic absorption spectroscopy", "assay_type": "in vivo", "conditions": "drug-treated Atp7b−/− mice, end of experiment", "method": "as §1, with “protocols. Hepatic copper levels were measured by polarized atomic absorption spectroscopy as previously described. Briefly, 50-100 mg of liver was dissolved in 2 ml of HNO3 at 90° C. Copper levels were determined using a Hitachi Z-8279 spectrophotometer. Samples were compared to freshly prepared standards.” for “protocols.”"}, "Atp7b−/− mice [4]": {"system": "Atp7b−/− mice", "test": "Serum liver biochemistries (AST, ALT, bilirubin, albumin)", "assay_type": "in vivo", "conditions": "treated Atp7b−/− mice; p<0.05 vs untreated", "method": "as §1, with “protocols. Animals were fasted overnight before sacrifice. Whole blood was collected from the aorta and vena cava in amber Microtainer tubes (Becton Dickinson, Franklin Lakes, N.J.), and serum was separated after centrifugation at 5000 rpm for 10 minutes. Liver biochemistries and lipid panels were performed in the Molecular and Comparative Pathobiology Core Laboratory of JHUSOM.” for “protocols.”"}, "Atp7b−/− mice [5]": {"system": "Atp7b−/− mice", "test": "Quantitative RT-PCR of liver mRNA, inflammatory and fibrosis genes", "assay_type": "in vivo", "method": "as §1, §2, §3"}, "Atp7b−/− mice [6]": {"system": "Atp7b−/− mice", "test": "Liver histology (H&E, inflammation scoring)", "assay_type": "in vivo", "method": "as §1, with “protocols. Sections of mouse liver were covered in OCT and snap frozen in liquid nitrogen. Sections were then cut and stained with hematoxylin and eosin. De-identified samples were analyzed for the presence of inflammation by an expert in veterinary pathology (D.H.). Inflammation was scored as follows: none, 0; mild, 1; moderate, 2; and severe, 3. Severely inflamed livers had karyomegaly, cytomegaly, binucleate hepatocytes, intranuclear vacuoles, multiple nuclei, and inflammatory cell infiltrates.” for “protocols.”"}, "Atp7b−/− mice [7]": {"system": "Atp7b−/− mice", "test": "Hepatic triglyceride colorimetric assay", "assay_type": "in vivo", "method": "as §1, with “protocols. The triglyceride colorimetric assay kit (Cayman Chemical, Ann Arbor, Mich.) was used for measuring hepatic triglyceride content using the provided protocol. 120-160 mg of liver tissue was homogenized and samples were assayed in triplicate. Absorbance at 540 nm was detected on an Envision plate reader (Perkin-Elmer). Triglyceride concentrations were calculated using a standard curve, then normalized to the volume of homogenate and the mass of the liver tissue.” for “protocols.”"}, "[8]": {"test": "Animal and liver weights during/after T0901317 treatment in chow", "assay_type": "in vivo, mice", "conditions": "for body weight: 50 mg/kg/day thrice weekly in chow, 8 weeks", "method": "as §1"}, "Atp7b−/− mice [9]": {"system": "Atp7b−/− mice", "test": "Hepatic oxysterol measurement by LC/MS", "assay_type": "in vivo", "conditions": "Atp7b knockout mice, data not shown", "method": "as §1, with “protocols. Oxysterols were extracted and measured using the protocol described by McDonald et al. (53(7) J. LIPID RES. 1399-1409 (2012)). […] Quantitation was performed by establishing a linear relationship between measured amounts of the analytical standards combined with the internal standard cocktail. This regression line was applied to the measured peak areas for analytes in the extracted samples to determine measured quantities present in each sample. […]” for “protocols.”"}, "[10]": {"conditions": "Atp7b−/− mice, treated vs untreated"}}, "note": "Entries after “also recorded” stand apart in the source; their conditions may differ.", "data": [{"smiles": "O=S(=O)(c1ccccc1)N(CC(F)(F)F)c1ccc(C(O)(C(F)(F)F)C(F)(F)F)cc1", "note": "[T0901317, N-(2,2,2-trifluoroethyl)-N-{4-[2,2,2-trifluoro-1-hydroxy-1-(trifluorometh-yl)ethyl]phenyl}benzene sulfonamide]", "values": [{"measurement": "SREBP1 mRNA", "setting": "[1]; ATP7b+/− mice", "result": "increased"}, {"measurement": "SREBP1 mRNA", "setting": "[1]; ATP7b−/− mice", "result": "no change"}, {"measurement": "FASN mRNA expression", "setting": "[1]; Atp7b+/− mice", "result": "significantly increased"}, {"measurement": "FASN mRNA expression", "setting": "[1]; Atp7b−/− mice", "result": "significantly increased"}, {"measurement": "ABC1 mRNA levels", "setting": "[1]; both KO and HET mice", "result": "did not change"}, {"measurement": "CYP7A1 mRNA levels", "setting": "[1]; both KO and HET mice", "result": "did not change"}, {"measurement": "HMGCS1 mRNA levels", "setting": "[1]; both KO and HET mice", "result": "did not change"}, {"measurement": "NR1H2 mRNA levels", "setting": "[1]; both KO and HET mice", "result": "did not change"}, {"measurement": "NR1H3 mRNA levels", "setting": "[1]; both KO and HET mice", "result": "did not change"}, {"measurement": "NR1H4 mRNA levels", "setting": "[1]; both KO and HET mice", "result": "did not change"}, {"measurement": "serum low density lipoprotein (LDL)", "setting": "Atp7b−/− mice [2]; p<0.001", "result": "significantly increased; also recorded: more than doubled"}, {"measurement": "serum total cholesterol", "setting": "Atp7b−/− mice [2]; p<0.001", "result": "significantly increased; also recorded: more than doubled"}, {"measurement": "serum high density lipoprotein (HDL)", "setting": "Atp7b−/− mice [2]; p<0.005", "result": "significantly increased; also recorded: more than doubled"}, {"measurement": "hepatic copper levels", "setting": "Atp7b−/− mice [3]", "result": "did not prevent copper accumulation"}, {"measurement": "serum ALT (mean)", "setting": "Atp7b−/− mice [4]", "result": "285±115", "unit": "U/L"}, {"measurement": "serum AST (mean)", "setting": "Atp7b−/− mice [4]", "result": "222±64", "unit": "U/L"}, {"measurement": "serum albumin", "setting": "Atp7b−/− mice [4]", "result": "2.93 ± 0.19", "unit": "g/dL"}, {"measurement": "serum total bilirubin", "setting": "Atp7b−/− mice [4]", "result": "0.85 ± 0.22", "unit": "mg/dL"}, {"measurement": "increase in expression of collagen (Col1a mRNA)", "setting": "Atp7b−/− mice [5]; Atp7b−/− mice", "result": "completely abolished"}, {"measurement": "IL-1β expression", "setting": "Atp7b−/− mice [5]; [10]", "result": "significantly reduced"}, {"measurement": "TNFα expression", "setting": "Atp7b−/− mice [5]; [10]", "result": "significantly reduced"}, {"measurement": "iNOs expression", "setting": "Atp7b−/− mice [5]; [10]", "result": "significantly reduced"}, {"measurement": "expression of inflammatory genes (TNFα, IL-1β, iNOs)", "setting": "Atp7b−/− mice [5]; heterozygote animals", "result": "no effect"}, {"measurement": "effect on liver histology", "setting": "Atp7b−/− mice [6]; heterozygote mice", "result": "no effect"}, {"measurement": "treated mice in which pathologic liver histology features disappeared", "setting": "Atp7b−/− mice [6]; treated KO mice, light microscopy", "result": "5/7"}, {"measurement": "hepatic triglycerides", "setting": "Atp7b−/− mice [7]; drug treated HET mice vs untreated HET", "result": "statistically significant increase"}, {"measurement": "hepatic triglycerides", "setting": "Atp7b−/− mice [7]; drug treated KO mice vs untreated KO", "result": "statistically significant increase"}, {"measurement": "liver weight, treated vs untreated", "setting": "[8]; KO (Atp7b−/−) mice, end of treatment", "result": "neither a difference"}, {"measurement": "body weight", "setting": "[8]; drug-treated HET (Atp7b+/−) mice, p<0.05 vs untreated", "result": "26.43 ± 1.35", "unit": "g"}, {"measurement": "body weight", "setting": "[8]; drug-treated KO (Atp7b−/−) mice", "result": "24.03 ± 0.91", "unit": "g"}, {"measurement": "changes in hepatic oxysterol levels", "setting": "Atp7b−/− mice [9]", "result": "did not reverse"}]}]}
